From US8809341B2, “2,4-pyrimidinediamine compounds and uses as anti-proliferative agents” (Rigel Pharmaceuticals, Inc., priority 2003, dated 2014)
Blank lines part the entries; values can stand above or below the compound they belong to.

Key:
[1] = tested on: A549 cells; test: in vitro antiproliferation assay, A549 (lung); assay type: cell-based
Method in brief: (§1)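 IC50 values came from standard antiproliferation testing in cultured tumour cells; the A549 and H1299 lines are of lung origin.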

[2] = tested on: H1299 cells; test: in vitro antiproliferation assay, H1299 (lung); assay type: cell-based
Method in brief: as §1

[3] = A549 (lung) cells, antiproliferation
[4] = H1299 (lung) cells, antiproliferation
[5] = Table 5, in vitro antiproliferation, A549 (lung) cells
[6] = Table 5, in vitro antiproliferation, H1299 (lung) cells
[7] = Homo sapiens, IC50 class against A549 (lung) tumor cells
[8] = Homo sapiens, NCI-H1299, IC50 class against H1299 (lung) tumor cells
[9] = IC50 class against A549 (lung) tumor cells
[10] = IC50 class against H1299 (lung) tumor cells
[11] = A549 (lung) cells, in vitro antiproliferation
[12] = H1299 (lung) cells, in vitro antiproliferation
[13] = Table 7, in vitro antiproliferation, A549 (lung) cells
[14] = Table 7, in vitro antiproliferation, H1299 (lung) cells

Compound: COc1cc(Nc2ncc(F)c(Nc3ccc4c(c3)OC(F)(F)O4)n2)cc(OC)c1 [compound 561]
IC50 [1, 5]: ≤ 20 µM | IC50 [2, 6]: ≤ 20 µM

Compound: COc1cc(Nc2ncc(F)c(Nc3ccc4c(c3)OC(F)(F)O4)n2)cc(C(F)(F)F)c1 [compound 567]
IC50 [1, 5]: ≤ 20 µM | IC50 [2, 6]: ≤ 20 µM

Compound: CC(=O)N1CCN(c2cccc(Nc3ncc(F)c(Nc4cc(C5CC5)[nH]n4)n3)c2)CC1 [compound 205]
IC50 [1, 7]: ≤ 20 µM | IC50 [2, 8]: ≤ 20 µM

Compound: Fc1cc(Nc2ncc(F)c(Nc3ccc4c(c3)OCCO4)n2)cc(C(F)(F)F)c1 [compound 522]
IC50 [1, 5]: > 20 µM | IC50 [2, 6]: > 20 µM

Compound: CC(=O)N1CCN(c2ccc(Nc3ncc(F)c(NC4CCC4)n3)cc2)CC1 [compound 154]
IC50 [1, 9]: ≤ 20 µM | IC50 [2, 10]: ≤ 20 µM

Compound: CCOC(=O)N1CCN(c2cccc(Nc3ncc(F)c(Nc4ccc5c(n4)NCCO5)n3)c2)CC1 [compound 607]
IC50 [1, 9]: ≤ 20 µM | IC50 [2, 10]: ≤ 20 µM

Compound: O=C1Nc2cc(Nc3nc(Nc4cccc(-c5ncco5)c4)ncc3F)ccc2OC1CCO (racemic) [compound 237]
IC50 ([1]; in vitro antiproliferation, A549 (lung) cells, Table 4, compounds with no designated stereochemistry tested as racemate): ≤ 20 µM | IC50 ([2]; in vitro antiproliferation, H1299 (lung) cells, Table 4, compounds with no designated stereochemistry tested as racemate): ≤ 20 µM

Compound: CN(c1nc(Nc2cccc(N3CCOCC3)c2)ncc1F)C1CCC1 [compound 127]
IC50 [1, 9]: ≤ 20 µM | IC50 [2, 10]: ≤ 20 µM

Compound: CC(=O)N1CCN(c2cccc(Nc3ncc(F)c(Nc4cc(C(C)(C)C)[nH]n4)n3)c2)CC1 [compound 200]
IC50 [1, 7]: ≤ 20 µM | IC50 [2, 8]: ≤ 20 µM

Compound: Fc1cnc(Nc2cccc(-c3ncco3)c2)nc1Nc1ccc2c(n1)NCCO2 [compound 610]
IC50 [1, 9]: ≤ 20 µM | IC50 [2, 10]: ≤ 20 µM

Compound: CCOC(=O)N1CCN(c2ccc(Nc3ncc(F)c(Nc4cc(C5CC5)[nH]n4)n3)cc2)CC1 [compound 209]
IC50 [1, 7]: ≤ 20 µM | IC50 [2, 8]: ≤ 20 µM

Compound: CCOC(=O)N1CCN(c2ccc(Nc3ncc(F)c(N(C)C4CCC4)n3)cc2)CC1 [compound 126]
IC50 [1, 9]: ≤ 20 µM | IC50 [2, 10]: ≤ 20 µM

Compound: CC(=O)N1CCN(c2ccc(Nc3ncc(F)c(Nc4ccc5c(n4)NCCO5)n3)cc2)CC1 [compound 603]
IC50 [1, 9]: ≤ 20 µM | IC50 [2, 10]: ≤ 20 µM

Compound: Cc1cc(Nc2ncc(F)c(NC3CC(C)(C)N(C)C(C)(C)C3)n2)cnc1N1CCN(C)CC1 [compound 184]
IC50 [1, 9]: ≤ 20 µM | IC50 [2, 10]: ≤ 20 µM

Compound: CCN1CCN(c2ccc(Nc3ncc(F)c(NC4CCC4)n3)cn2)CC1 [compound 167]
IC50 [1, 9]: ≤ 20 µM | IC50 [2, 10]: ≤ 20 µM

Other lines, results leading:

IC50 [1, 3]: > 20 µM | IC50 [2, 4]: > 20 µM
Compound: COc1ccc(N(C)c2nc(Nc3cc(C)c(OC)c(Cl)c3)ncc2F)cc1Cl [compound 904]

IC50 ([1]; A549 (lung) cells): ≤ 20 µM | IC50 ([2]; H1299 (lung) cells): ≤ 20 µM
Compound: CC(C)(CC1CCC1)n1ncc2cc(Nc3ncc(F)c(Nc4ccc(Cl)c(Cl)c4)n3)ccc21 [compound 1099]

IC50 [1, 3]: > 20 µM | IC50 [2, 4]: ≤ 20 µM
Compound: CCOC(=O)COc1cccc(Nc2ncc(F)c(Nc3cc(C)c(O)c(Cl)c3)n2)c1 [compound 952]

IC50 ([1]; A549 (lung) cells): ≤ 20 µM | IC50 ([2]; H1299 (lung) cells): ≤ 20 µM
Compound: COc1cc(Nc2nc(Nc3ccc4c(cnn4C(C)(C)CC4CC4)c3)ncc2F)ccc1F [compound 1109]

IC50 [1, 11]: ≤ 20 µM | IC50 [2, 12]: > 20 µM
Compound: COc1ccc(Nc2nc(Nc3cc(C)c(C)c(C)c3)ncc2F)cc1Cl [compound 811]

IC50 [1, 11]: ≤ 20 µM | IC50 [2, 12]: ≤ 20 µM
Compound: COc1cc(Nc2ncc(F)c(Nc3cc(C)cc(C)c3)n2)cc(C(F)(F)F)c1 [compound 815]

IC50 [1, 3]: ≤ 20 µM | IC50 [2, 4]: ≤ 20 µM
Compound: COc1cc(Nc2ncc(F)c(N(C)c3ccc(OC)c(Cl)c3)n2)cc(OC)c1 [compound 903]

IC50 [1, 13]: > 20 µM | IC50 [2, 14]: > 20 µM
Compound: COc1cc(Nc2nc(Nc3ccc4oc(C(=O)O)cc4c3)ncc2F)cc(OC)c1 [compound 657]

IC50 [1, 11]: ≤ 20 µM | IC50 [2, 12]: ≤ 20 µM
Compound: CCOc1ccc(Nc2ncc(F)c(Nc3ccc(OCC)cc3)n2)cc1 [compound 704]

IC50 [1, 3]: ≤ 20 µM | IC50 [2, 4]: ≤ 20 µM
Compound: CNS(=O)(=O)c1ccc(Nc2ncc(F)c(Nc3ccc(OC)c(OC)c3)n2)cc1OC [compound 879]

IC50 [1, 13]: ≤ 20 µM | IC50 [2, 14]: ≤ 20 µM
Compound: CCOC(=O)c1cc2cccc(Nc3ncc(F)c(Nc4ccc(OC)c(OC)c4)n3)c2[nH]1 [compound 664]

IC50 [1, 3]: > 20 µM | IC50 [2, 4]: > 20 µM
Compound: CCOC(=O)COc1cccc(Nc2ncc(F)c(Nc3cc(Cl)c(O)c(Cl)c3)n2)c1 [compound 999]

IC50 ([1]; Homo sapiens, A549 (lung) cells): ≤ 20 µM | IC50 ([2]; Homo sapiens, NCI-H1299, H1299 (lung) cells): ≤ 20 µM
Compound: COc1cc(C(N)=O)c(Nc2ncc(F)c(NC3CCCC3)n2)cc1OC(=O)c1ccccc1 [compound 1163]

IC50 [1, 11]: ≤ 20 µM | IC50 [2, 12]: ≤ 20 µM
Compound: COc1cc(Nc2nc(Nc3cccc(N4CCN(C(C)=O)CC4)c3)ncc2F)cc(OC)c1 [compound 861]

IC50 ([1]; A549 (lung) cells): > 20 µM | IC50 ([2]; H1299 (lung) cells): ≤ 20 µM
Compound: COc1cc(Nc2nc(Nc3ccc4cnn(C(C)(C)CC5CCCCC5)c4c3)ncc2F)ccc1F [compound 1097]

IC50 ([1]; A549 (lung) cells): ≤ 20 µM | IC50 ([2]; H1299 (lung) cells): ≤ 20 µM
Compound: CC1(C)Oc2ccc(Nc3nc(Nc4ccc5cnn(C(C)(C)CC6CCC6)c5c4)ncc3F)cc2NC1=O [compound 1104]
